From patent US11339171B2, “MDM2 inhibitors” (Gan & Lee Pharmaceuticals, priority 2017, dated 2022)
pIC50: −log10 of the molar value.

Columns and labels:
MDM2 = biological target: T1, MDM2 (Homo sapiens, UniProt Q00987); test: Inhibition test of MDM2-P53 (GST-MDM2, Biotin-P53, Anti-GST-Tb, SA-XL665); type: binding
T1 construct: made in house
How it was run: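 HTRF-type assay using 4 nM GST-MDM2 (final), Biotin-P53, SA-XL665 and anti-GST-Tb in PBS with 0.1% BSA, 5 mM DTT and 1 mM AEBSF. Compounds in 5-fold serial dilutions over twelve points; incubation 90 min at 25° C with shaking before plate-reader read-out.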

[1] = test system: human osteosarcoma cell line SJSA-1; test: Inhibition of proliferation of human osteosarcoma cell line SJSA-1 (DAPI staining, In Cell Analyzer); settings: for IC50: Homo sapiens, SJSA-1, 72 h, read-out: IC50 (nM), inhibitory activity on proliferation of human osteosarcoma cell line SJSA-1, SJSA-1, incubated 72 h
[2] = labels are Example numbers, the compounds with S-configuration are meant

T1 sequence (Q00987 whole entry): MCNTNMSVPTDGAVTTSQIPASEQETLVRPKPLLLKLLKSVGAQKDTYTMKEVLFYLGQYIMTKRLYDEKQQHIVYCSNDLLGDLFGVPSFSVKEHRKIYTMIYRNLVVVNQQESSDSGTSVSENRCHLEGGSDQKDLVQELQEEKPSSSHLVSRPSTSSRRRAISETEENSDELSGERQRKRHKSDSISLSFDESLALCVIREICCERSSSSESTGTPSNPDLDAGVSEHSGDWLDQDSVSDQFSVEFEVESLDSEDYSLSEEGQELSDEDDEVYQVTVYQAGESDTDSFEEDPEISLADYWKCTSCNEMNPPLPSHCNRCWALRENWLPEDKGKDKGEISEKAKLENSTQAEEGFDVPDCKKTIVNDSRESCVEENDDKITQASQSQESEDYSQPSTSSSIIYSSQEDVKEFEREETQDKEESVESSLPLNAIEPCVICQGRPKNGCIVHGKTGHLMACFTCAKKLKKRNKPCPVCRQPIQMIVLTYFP

Row | Structure (SMILES) | pIC50 (MDM2) | IC50 [1] [nM] | inhibitory effect on MDM2 compared with positive control compound HDM201 (MDM2; [2]) | inhibitory effect on human osteosarcoma cell line SJSA-1 compared with positive control compound HDM201 [1, 2]
1 | CNC(=O)c1ccc(OC)c(-c2nc3c(n2C(C)C)[C@]2(C(=O)Nc4cc(Cl)ccc42)N(c2cc(Cl)ccc2C)C3=O)c1 [Example R-21, (R)-3-(6-chloro-5′-(5-chloro-2-methylphenyl)-3′-isopropyl-2,6′-dioxo-5′,6′-dihydro-3′H-spiro[dihydroindole-3,4′-pyrrolo[3,4-d]imidazole]-2′-yl)-4-methoxy-N-methylbenzamide] | 6.65 | 5230 |  | 
2 | COc1nc(OCCF)ncc1-c1nc2c(n1C(C)C)[C@@]1(C(=O)Nc3cc(Cl)ccc31)N(c1cccc(Cl)c1)C2=O [Example S-171, (S)-6-chloro-5′-(3-chlorophenyl)-2′-(2-(2-fluoroethoxy)-4-methoxypyrimidin-5-yl)-3′-isopropyl-3′H-spiro[dihydroindole-3,4′-pyrrolo[3,4-d]imidazole]-2,6′(5′H)-dione] | 8.54 | 379 |  | 
3 | COc1cc(N(C)C)c(C)cc1-c1nc2c(n1C(C)C)[C@]1(C(=O)Nc3cc(Cl)ccc31)N(c1cc(Cl)ccc1C)C2=O [Example R-91, (R)-6-chloro-5′-(5-chloro-2-methylphenyl)-2′-(4-(dimethylamino)-2-methoxy-5-methylphenyl)-3′-isopropyl-3′H-spiro[dihydroindole-3,4′-pyrrolo[3,4-d]imidazole]-2,6′(5′H)-dione] | 6.34 | 993 |  | 
4 | COc1nc(C2CC2)ncc1-c1nc2c(n1C(C)C)[C@@]1(C(=O)Nc3cc(Cl)ccc31)N(c1cccc(Cl)c1)C2=O [Example S-122, (S)-6-chloro-5′-(3-chlorophenyl)-2′-(2-cyclopropyl-4-methoxypyrimidin-5-yl)-3′-isopropyl-3′H-spiro[dihydroindole-3,4′-pyrrolo[3,4-d]imidazole]-2,6′(5′H)-dione] | 8.56 | 117 |  | 
5 | COc1cc(Cl)cc(N2C(=O)c3nc(-c4cnc(OC)nc4OC)n(C(C)C)c3[C@@]23C(=O)Nc2cc(Cl)ccc23)c1 [Example S-58, (S)-6-chloro-5′-(3-chloro-5-methoxyphenyl)-2′-(2,4-dimethoxypyrimidin-5-yl)-3′-isopropyl-3′H-spiro[dihydroindole-3,4′-pyrrolo[3,4-d]imidazole]-2,6′(5′H)-dione] | 7.94 | 50.8 |  | 
6 | COc1cc(C)ccc1-c1nc2c(n1C(C)C)[C@]1(C(=O)Nc3cc(Cl)ccc31)N(c1cccc(Cl)c1)C2=O [Example R-109, (R)-6-chloro-5′-(3-chlorophenyl)-3′-isopropyl-2′-(2-methoxy-4-methylphenyl)-3′H-spiro[dihydroindole-3,4′-pyrrolo[3,4-d]imidazole]-2,6′(5′H)-dione] | 6.42 | 8200 |  | 
7 | COc1ncc(-c2cc3c(n2C(C)C)[C@]2(C(=O)Nc4cc(Cl)ccc42)N(c2cc(Cl)ccc2C)C3=O)c(OC)n1 [Example R-50, (R)-6-chloro-5′-(5-chloro-2-methylphenyl)-2′-(2,4-dimethoxypyrimidin-5-yl)-1′-isopropyl-1′H-spiro[dihydroindole-3,6′-pyrrolo[3,4-b]pyrrole]-2,4′(5′H)-dione] | 4.69 | 8430 |  | 
8 | COc1cc(C2CC2)ncc1-c1nc2c(n1C(C)C)[C@@]1(C(=O)Nc3cc(Cl)ccc31)N(c1cc(F)cc(Cl)c1)C2=O [Example S-176, (S)-6-chloro-5′-(3-chloro-5-fluorophenyl)-2′-(6-cyclopropyl-4-methoxypyridin-3-yl)-3′-isopropyl-3′H-spiro[dihydroindole-3,4′-pyrrolo[3,4-d]imidazole]-2,6′(5′H)-dione] | 8.75 | 28.8 |  | 
9 | COc1ccc(C(=O)N(C)C)cc1-c1nc2c(n1C(C)C)[C@@]1(C(=O)Nc3cc(Cl)ccc31)N(c1cc(Cl)ccc1C)C2=O [Example S-22, (S)-3-(6-chloro-5′-(5-chloro-2-methylphenyl)-3′-isopropyl-2,6′-dioxo-5′,6′-dihydro-3′H-spiro[dihydroindole-3,4′-pyrrolo[3,4-d]imidazole]-2′-yl)-4-methoxy-N,N-dimethylbenzamide] | 8.96 | 7.46 |  | 
10 | COc1cc(N(C)C)ncc1-c1nc2c(n1C(C)C)[C@]1(C(=O)Nc3cc(Cl)ccc31)N(c1cc(Cl)cnc1C)C2=O [Example R-155, (R)-6-chloro-5′-(5-chloro-2-methylpyridin-3-yl)-2′-(6-(dimethylamino)-4-methoxypyridin-3-yl)-3′-isopropyl-3′H-spiro[dihydroindole-3,4′-pyrrolo[3,4-d]imidazole]-2,6′(5′H)-dione] | 7.02 | 1520 |  | 
11 | COc1cc(N(C)C)ncc1-c1nc2c(n1C(C)C)[C@@]1(C(=O)Nc3cc(Cl)ccc31)N(c1cc(Cl)cnc1C)C2=O [Example S-155, (S)-6-chloro-5′-(5-chloro-2-methylpyridin-3-yl)-2′-(6-(dimethylamino)-4-methoxypyridin-3-yl)-3′-isopropyl-3′H-spiro[dihydroindole-3,4′-pyrrolo[3,4-d]imidazole]-2,6′(5′H)-dione] | 9.02 | 14.6 |  | 
12 | COc1cc(OC(F)F)ncc1-c1nc2c(n1C(C)C)[C@]1(C(=O)Nc3cc(Cl)ccc31)N(c1cc(Cl)ccc1C)C2=O [Example R-150, (R)-6-chloro-5′-(5-chloro-2-methylphenyl)-2′-(6-(difluoromethoxy)-4-methoxypyridin-3-yl)-3′-isopropyl-3′H-spiro[dihydroindole-3,4′-pyrrolo[3,4-d]imidazole]-2,6′(5′H)-dione] | 6.42 | 5700 |  | 
13 | COc1cc(N(C)C)ncc1-c1nc2c(n1C(C)C)C1(C(=O)Nc3cc(Cl)ccc31)N(c1cc(Cl)cnc1C)C2=O (centres unmarked) [Example 155, 6-chloro-5′-(5-chloro-2-methylpyridin-3-yl)-2′-(6-(dimethylamino)-4-methoxypyridin-3-yl)-3′-isopropyl-3′H-spiro[dihydroindole-3,4′-pyrrolo[3,4-d]imidazole]-2,6′(5′H)-dione] |  |  | better | better
14 | COc1cc(CN(C)C)ccc1-c1nc2c(n1C(C)C)[C@@]1(C(=O)Nc3cc(Cl)ccc31)N(c1cc(Cl)ccc1C)C2=O [Example S-47, (S)-6-chloro-5′-(5-chloro-2-methylphenyl)-2′-(4-((dimethylamino)methyl)-2-methoxyphenyl)-3′-isopropyl-3′H-spiro[dihydroindole-3,4′-pyrrolo[3,4-d]imidazole]-2,6′(5′H)-dione] | 8.38 | 14 |  | 
15 | COc1ncc(-c2nc3c(n2C(C)C)[C@]2(C(=O)Nc4cc(Cl)ccc42)N(c2cccc(Cl)c2)C3=O)c(OC)n1 [Example R-1, (R)-6-chloro-5′-(3-chlorophenyl)-2′-(2,4-dimethoxypyrimidin-5-yl)-3′-isopropyl-3′H-spiro[dihydroindole-3,4′-pyrrolo[3,4-d]imidazole]-2,6′(5′H)-dione] | 6.21 | 16700 |  | 
16 | COc1ncc(-c2nc3c(n2C2CCC2)[C@@]2(C(=O)Nc4cc(Cl)ccc42)N(c2cc(Cl)ccc2C)C3=O)c(OC)n1 [Example S-41, (S)-6-chloro-5′-(5-chloro-2-methylphenyl)-3′-cyclobutyl-2′-(2,4-dimethoxypyrimidin-5-yl)-3′H-spiro[dihydroindole-3,4′-pyrrolo[3,4-d]imidazole]-2,6′(5′H)-dione] | 6.83 | 1210 |  | 
17 | COc1ccc(N2C(=O)c3nc(-c4ccccc4OC)n(C(C)C)c3[C@@]23C(=O)Nc2cc(Cl)ccc23)cc1Cl [Example S-63, (S)-6-chloro-5′-(3-chloro-4-methoxyphenyl)-3′-isopropyl-2′-(2-methoxyphenyl)-3′H-spiro[dihydroindole-3,4′-pyrrolo[3,4-d]imidazole]-2,6′(5′H)-dione] | 8.94 | 77.6 |  | 
18 | COc1ncc(-c2nc3c(n2C(C)C)[C@@]2(C(=O)Nc4cc(Cl)ccc42)N(c2cc(Cl)cnc2C)C3=O)c(OC)n1 [Example S-42, (S)-6-chloro-5′-(5-chloro-2-methylpyridin-3-yl)-2′-(2,4-dimethoxypyrimidin-5-yl)-3′-isopropyl-3′H-spiro[dihydroindole-3,4′-pyrrolo[3,4-d]imidazole]-2,6′(5′H)-dione] | 8.82 | 5.6 |  | 
19 | COc1cc(C(C)C)ncc1-c1nc2c(n1C(C)C)[C@@]1(C(=O)Nc3cc(Cl)ccc31)N(c1cc(Cl)cnc1C)C2=O [Example S-166, (S)-6-chloro-5′-(5-chloro-2-methylpyridin-3-yl)-3′-isopropyl-2′-(6-isopropyl-4-methoxypyridin-3-yl)-3′H-spiro[dihydroindole-3,4′-pyrrolo[3,4-d]imidazole]-2,6′(5′H)-dione] | 8.73 | 38.1 |  | 
20 | COc1ccc(N2C(=O)c3nc(-c4ccc(N)cc4OC)n(C(C)C)c3[C@]23C(=O)Nc2cc(Cl)ccc23)cc1Cl [Example R-71, (R)-2′-(4-amino-2-methoxyphenyl)-6-chloro-5′-(3-chloro-4-methoxyphenyl)-3′-isopropyl-3′H-spiro[dihydroindole-3,4′-pyrrolo[3,4-d]imidazole]-2,6′(5′H)-dione] | 7.00 | 7020 |  | 
21 | COc1ccc(-c2nc3c(n2C(C)C)[C@]2(C(=O)Nc4cc(Cl)ccc42)N(c2cc(Cl)c(=O)n(C)c2)C3=O)c(OC)c1 [Example R-52, (R)-6-chloro-5′-(5-chloro-1-methyl-6-oxo-1,6-dihydropyridin-3-yl)-2′-(2,4-dimethoxyphenyl)-3′-isopropyl-3′H-spiro[dihydroindole-3,4′-pyrrolo[3,4-d]imidazole]-2,6′(5′H)-dione] | 6.27 | 22400 |  | 
22 | COc1cc(C(C)C)ccc1-c1nc2c(n1C(C)C)[C@@]1(C(=O)Nc3cc(Cl)ccc31)N(c1cc(Cl)cnc1C)C2=O [Example S-89, (S)-6-chloro-5′-(5-chloro-2-methylpyridin-3-yl)-3′-isopropyl-2′-(4-isopropyl-2-methoxyphenyl)-3′H-spiro[dihydroindole-3,4′-pyrrolo[3,4-d]imidazole]-2,6′(5′H)-dione] | 8.36 | 43.2 |  | 
